The record followed here is US10206997B2, “Facilitator-DNA combination vaccine” (priority 2011, dated 2019).

Structures are written as SMILES.

The subject of assay [1] is RAW264.7, JAWSII and DC2.4 cell lines. Nature of the assay: Cy5-pEGFP plasmid entry and expression in antigen presenting cell lines. The assay is classed as cell-based. The method, then:
(§1) With respect to cell culture and inhibiter treatment, RAW264.7 and DC2.4 were cultured in DMEM/10% FCS, and JAWSII was cultured in DMEM/10% FCS with GMCSF (1000 U/ml, Peprotech, USA). Amiloride (Sigma-Aldrich, USA) was prepared as 10 mM solution and was diluted to 1 mM, 100 uM, 10 uM in DMEM medium before treatment. After culture medium was removed, cells were treated with amiloride, MβCD (5 mM, Sigma) or Fillipin (10 ng/ml, sigma) at 37° C. for 1 h. LPS (10 ng/ml, sigma) or 10 ng/ml DNA in DMEM was added at 37° C. for 0.5 h, after wash, culture medium was added and cells were cultured.
With respect to plasmid preparation and fluorescence conjugation, pEGFP (Clontech, USA) and pcD-S2 plasmid were prepared from DH5a culture, purified by EndoFree Plasmid Maxi Kit (Qiagen, Germany) and endotoxin was below 10 EU/mg by LAL test. Cy5 was conjugated to plasmid with Minis Label IT Kit (Minis, USA) as manual instructed.

Assay [2] deals with Cy5-plasmid+ cells in lymph nodes. Nature of the assay: Cy5-pEGFP plasmid entry in vivo, Cy5+ cells in draining lymph nodes by FACS. Also noted: species or system C57B/6 mice. The settings on record: hind footpad, 4 hrs. The method, then: (§2) 4 h later, both inguinal lymph nodes were collected.
On the technique in general: Flow cytometry measures light scatter and fluorescence of single cells or particles in a stream.

The next assay deals with RAW264.7. The assay is described as follows: APC maturation markers and innate cytokine secretion with pcD-S2. The assay is classed as cell-based. To be noted: pcD-S2 with vs without amiloride. The method, then:
as §1

For another assay, the system named is HBsAg. The assay is described as follows: Antibody against HBsAg after footpad immunization. It counts as in vivo, C57B/6 mice.
The next assay concerns CD8+ T effectors. The assay is described as follows: Multi-color flow cytometry of CD8+ T effectors (IFN-γ, perforin, granzyme B). To be noted: HBsAg restimulation. It counts as in vivo, mice. The method, then: as §2
With respect to multi-color flow cytometry, a multi-color panel was set up with anti-CD3, anti-CD8, anti-IFN-γ, anti-perforin and anti-granzyme B. After restimulation in vitro by sAg for 24 h or S208-215 for 12 h, following monensin block for 6 h, splenocyte was fixed, penetrated and stained. Data was collected with BD Aria and analyzed with Flowjo (Tree Star, Ashland, USA).

The test system of assay [3] is CD8 T cells co-cultured with peritoneal macrophages or spleen dendritic cells. The assay is described as follows: Co-culture of treated APCs with purified CD8 T cells. It counts as cell-based, mice. To be noted: macrophages and DCs co-culture; pcD-S2 with vs without amiloride. The method, then: With respect to co-cultures, pcD-S2 (10 μg/ml) with or without 100 μM amiloride treat APCs, peritoneal macrophage or spleen dendritic cell, were cultured for 2 days. At day 3, purified CD8 T cell (R&D systems, USA) was added into culture with APC:T ratio of 1:5, 1:2, 1:1. At day 8, cells were collected and restimulated with S208-215 (10 μg/ml). PMA+Ionomycin was added as positive control for restimulation.

On to `N=C(N)NC(=O)c1nc(Cl)c(N)nc1N` [amiloride], for which the GFP expression entry in assay [1] (1 mM amiloride pre-treatment, after 3 days culture, vs un-treated cells) was “significantly higher level of GFP”. For the same molecule, the “GFP expression relative to liposome treated cells” value in assay [1] (1 mM amiloride, 3 days) was “comparable with that of liposome treated cells”. Further, in assay [1] (pre-treated with 1 mM amiloride for 1 h, within 2 hrs, vs un-treated cells), the “uptake of Cy5-labeled pEGFP plasmids” value was “significantly taken up”. For the same molecule, the figures for the “percentage of Cy5-plasmid+ cells in lymph nodes (LN)” value in assay [2] (10 μM amiloride), in assay [2] (100 μM amiloride) and in assay [2] (1 mM amiloride) were “increased”, “peaked” and “decreased”, respectively. The “expression of TNF and IFN-γ” value in the assay on RAW264.7 (RAW264.7) was “higher levels of expression of TNF and IFN-γ”. In the assay on RAW264.7 (RAW264.7 in vitro), the “expression of maturation markers CD40, CD80 and CD86” value is “higher levels of expression of CD40, CD80 and CD86”. The “most effective dose of amiloride for in vivo treatment” value in the assay with HBsAg (antibody and DTH experiments) was found to be 1 mM. Further, the “levels of antibody against HBsAg” value in the assay on HBsAg (footpad immunization, vs pcD-S2 alone, dose dependent) is “increased”. Moreover, the “triple positive cells in HBsAg stimulated CD8 response” value in the assay on CD8+ T effectors is listed as “triple positive cells could also be observed”. Besides, the “percentage of S208-215 specific triple positive CD8 T effectors” value in assay [3] is “significantly increased”.
